What was measured:
Assay type in all cases: in vivo
Echinochloa crus-galli [1] = assay: Pre-emergence herbicidal efficacy, ECHCG; conditions: Table B1, application rate 320 g/ha, scored visually after about 3 weeks vs untreated controls
In short: (§1)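 Visual percent activity relative to untreated plants (0% = like control, 100% = dead), scored about 3 weeks after treatment under greenhouse conditions.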

Stellaria media [2] = assay: Pre-emergence herbicidal efficacy, STEME; conditions: Table B1, application rate 320 g/ha, scored visually after about 3 weeks vs untreated controls
In short: as §1

Veronica persica [3] = assay: Post-emergence herbicidal efficacy, VERPE; conditions: application rate 320 g/ha
Text: (§2) ABUTH: Abutilon theophrasti ALOMY: Alopecurus myosuroides AMARE: Amaranthus retroflexus AVEFA: Avena fatua CYPES: Cyperus esculentus ECHCG: Echinochloa crus-galli LOLMU: Lolium multiflorum MATIN: Matricaria inodora PHBPU: Ipomoea purpurea POLCO: Polygonum convolvulus SETVI: Setaria viridis STEME: Stellaria media VERPE: Veronica persica VTOTR: Viola tricolor
(§3) C.2 Post-Emergence Herbicidal Action and Crop Plant Compatibility
(§4) Seeds of monocotyledonous and dicotyledonous weeds and crop plants are placed in sandy loam in plastic or organic planting pots, covered with soil and cultivated in a greenhouse under controlled growth conditions. 2 to 3 weeks after sowing, the test plants are treated at the one-leaf stage. The compounds of the invention, formulated in the form of wettable powders (WP) or as emulsion concentrates (EC), are then sprayed onto the green parts of the plants as aqueous suspension or emulsion with addition of 0.5% additive at a water application rate of […] (converted). After the test plants had been kept in the greenhouse under optimum growth conditions for about 3 weeks, the activity of the preparations is rated visually in comparison to untreated controls. For example, 100% activity=the plants have died, 0% activity=like control plants.

Matricaria inodora = assay: Pre-emergence herbicidal efficacy, MATIN; conditions: Table B1, application rate 320 g/ha, scored visually after about 3 weeks vs untreated controls
In short: as §1

Amaranthus retroflexus [4] = assay: Post-emergence herbicidal efficacy, AMARE; conditions: application rate 320 g/ha, rated visually after about 3 weeks
Text: as §2, §3, §4

Veronica persica [5] = assay: Pre-emergence herbicidal efficacy, VERPE; conditions: Table B1, application rate 320 g/ha, scored visually after about 3 weeks vs untreated controls
In short: as §1

Echinochloa crus-galli [6] = assay: Post-emergence herbicidal efficacy, ECHCG; conditions: application rate 320 g/ha, rated visually after about 3 weeks
Text: as §2, §3, §4

Viola tricolor [7] = assay: Post-emergence herbicidal efficacy, VIOTR; conditions: application rate 320 g/ha
Text: as §2, §3, §4

Viola tricolor [8] = assay: Pre-emergence herbicidal efficacy, VIOTR; conditions: Table B1, application rate 320 g/ha, scored visually after about 3 weeks vs untreated controls
In short: as §1

Amaranthus retroflexus [9] = assay: Pre-emergence herbicidal efficacy, AMARE; conditions: Table B1, application rate 320 g/ha, scored visually after about 3 weeks vs untreated controls
In short: as §1

Abutilon theophrasti = assay: Pre-emergence herbicidal efficacy, ABUTH; conditions: Table B1, application rate 320 g/ha, scored visually after about 3 weeks vs untreated controls
In short: as §1

Lolium rigidum [10] = assay: Pre-emergence herbicidal efficacy, LOLRI; conditions: Table B1, application rate 320 g/ha, scored visually after about 3 weeks vs untreated controls
In short: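 Seeds sown in pots and covered with soil. Greenhouse-grown about 3 weeks, then visually scored as % activity vs untreated controls (100% = dead, 0% = like control).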

Polygonum convolvulus = assay: Pre-emergence herbicidal efficacy, POLCO; conditions: Table B1, application rate 320 g/ha, scored visually after about 3 weeks vs untreated controls
In short: as §1

Stellaria media [11] = assay: Post-emergence herbicidal efficacy, STEME; conditions: application rate 320 g/ha, rated visually after about 3 weeks
Text: as §2, §3, §4

Setaria viridis = assay: Pre-emergence herbicidal efficacy, SETVI; conditions: Table B1, application rate 320 g/ha, scored visually after about 3 weeks vs untreated controls
In short: as §1

Lolium rigidum [12] = assay: Post-emergence herbicidal efficacy, LOLRI; conditions: application rate 320 g/ha, rated visually after about 3 weeks
Description: as §3, §4

[13] = rated visually after about 3 weeks (Table B5)
[14] = rated visually after about 3 weeks (Table B7)

Row | SMILES | Herbicidal efficacy against ECHCG (Echinochloa crus-galli [1]) | Herbicidal efficacy against STEME (Stellaria media [2]) | Herbicidal efficacy against VERPE (Veronica persica [3]; [13]) | Herbicidal efficacy against MATIN (Matricaria inodora) | Herbicidal efficacy against AMARE (Amaranthus retroflexus [4]) | Herbicidal efficacy against VERPE (Veronica persica [5]) | Herbicidal efficacy against ECHCG (Echinochloa crus-galli [6]) | Herbicidal efficacy against VIOTR (Viola tricolor [7]; [13]) | Herbicidal efficacy against VIOTR (Viola tricolor [8]) | Herbicidal efficacy against AMARE (Amaranthus retroflexus [9]) | Herbicidal efficacy against ABUTH (Abutilon theophrasti) | Herbicidal efficacy against LOLRI (Lolium rigidum [10]) | Herbicidal efficacy against POLCO (Polygonum convolvulus) | Herbicidal efficacy against STEME (Stellaria media [11]) | Herbicidal efficacy against SETVI (Setaria viridis) | Herbicidal efficacy against VERPE (Veronica persica [3]; [14]) | Herbicidal efficacy against VIOTR (Viola tricolor [7]; [14]) | Herbicidal efficacy against LOLRI (Lolium rigidum [12])
1 | c1ccc2c(c1)CCC[C@H]2Nc1nc2n(n1)CCCCS2 [Example I-355] | 100% | 100% | 80% | 100% | 80% | 100% | 100% | 80% | 100% | 100% | 100% | 80% | 100% | 100% | 100% | – | – | –
2 | Fc1cccc2c1CCC[C@H]2Nc1nc2n(n1)CCCCS2 [Example I-213] | 100% | 100% | – | 100% | – | 100% | – | – | 100% | 100% | 100% | 100% | 100% | – | 100% | 90% | 90% | –
3 | Cc1ccc2c(c1)C(Nc1nc3n(n1)CCCCS3)C(C)C2 (stereo not shown) [Example I-354] | 100% | 100% | 100% | 100% | 80% | 100% | 100% | 80% | 100% | 100% | 100% | 100% | 100% | 100% | 100% | – | – | 100%
4 | Cc1ccc2c(c1)[C@H](Nc1nc3n(n1)CCN(S(=O)(=O)C1CC1)C3)CCC2 [Example I-200] | 100% | 100% | – | 100% | – | 100% | – | – | 100% | 100% | 100% | 100% | 100% | – | 100% | 100% | 80% | –
5 | Cc1ccc2c(c1)C(Nc1nc3n(n1)CCCCS3(=O)=O)C(C)C2 (stereo not shown) [Example I-366] | 100% | 100% | – | 100% | 80% | 100% | 100% | – | 100% | 100% | 100% | 100% | 100% | 90% | 100% | – | – | 90%
6 | Cc1ccc2c(c1)[C@H](Nc1nc3n(n1)CCN(S(C)(=O)=O)C3)CCC2 [Example I-198] | 90% | 100% | – | 100% | – | 100% | – | – | 100% | 100% | 100% | 100% | 100% | – | 90% | 90% | 80% | –
7 | Cc1ccc2c(c1)C(Nc1nc3n(n1)CCCCS3(=O)=O)CC2 (stereo not shown) [Example I-232] | 100% | 100% | 90% | 100% | 100% | 100% | 80% | 90% | 100% | 100% | 100% | 100% | 100% | 100% | 100% | – | – | 90%
8 | Cc1ccc2c(c1)[C@H](Nc1nc3n(n1)CCCCS3)CCC2 [Example I-402] | 100% | 100% | 90% | 100% | 90% | 100% | 100% | 90% | 100% | 100% | 100% | 100% | 100% | 90% | 100% | – | – | –
9 | Cc1ccc2c(c1)C(Nc1nc3n(n1)CCCCS3(=O)=O)CCC2 (stereo not shown) [Example I-234] | 100% | 100% | – | 100% | – | 100% | – | – | 100% | 100% | 100% | 100% | 100% | – | 100% | 80% | 90% | –
10 | Cc1ccc2c(c1)C(Nc1nc3n(n1)CCC(=O)N3C)CC2 (stereo not shown) [Example I-227] | 100% | 100% | – | 100% | – | 100% | – | – | 100% | 100% | 100% | 100% | 100% | – | 100% | 100% | 90% | –
